Numbering of substitutions follows the chain as printed. Values belong to the compound of their own block, whether it stands above or below them.
Tests used:
Format in all cases: cell-based
[1] = molecular target: T1, GlyR α1 WT (Homo sapiens, UniProt P23415); assay: Whole-cell recording of wild-type GlyR α1 expressed in HEK cells
T1 sequence (P23415 29-457): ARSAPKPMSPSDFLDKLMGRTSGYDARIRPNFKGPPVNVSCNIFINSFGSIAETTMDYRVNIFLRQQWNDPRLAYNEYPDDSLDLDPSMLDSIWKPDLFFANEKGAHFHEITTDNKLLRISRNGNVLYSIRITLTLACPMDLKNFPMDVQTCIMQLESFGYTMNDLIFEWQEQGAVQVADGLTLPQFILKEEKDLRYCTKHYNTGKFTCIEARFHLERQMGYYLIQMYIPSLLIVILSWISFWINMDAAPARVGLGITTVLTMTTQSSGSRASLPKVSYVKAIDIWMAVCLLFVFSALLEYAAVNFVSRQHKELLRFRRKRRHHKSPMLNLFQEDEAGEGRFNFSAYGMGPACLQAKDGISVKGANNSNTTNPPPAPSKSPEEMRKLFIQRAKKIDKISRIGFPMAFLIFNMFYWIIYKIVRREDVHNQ

[2] = molecular target: T2, GlyR α1^F99A,E157A (Homo sapiens, UniProt P23415, E185A/F127A); assay: Whole-cell recording of substituted GlyR in HEK cells
T2 sequence (P23415 29-457 F127A/E185A): T1 sequence (P23415 29-457) with F99A, E157A

[3] = molecular target: T3, GlyR α1^I132A (Homo sapiens, UniProt P23415, I160A); assay: as above
T3 sequence (P23415 29-457 I160A): T1 sequence (P23415 29-457) with I132A

[4] = molecular target: T4, GlyR α1^L117A (Homo sapiens, UniProt P23415, L145A); assay: as above
T4 sequence (P23415 29-457 L145A): T1 sequence (P23415 29-457) with L117A

[5] = molecular target: T5, GlyR α1^F99A (Homo sapiens, UniProt P23415, F127A); assay: as above; conditions: α1^F99A
T5 sequence (P23415 29-457 F127A): T1 sequence (P23415 29-457) with F99A

[6] = molecular target: T6, GlyR α1^L98A (Homo sapiens, UniProt P23415, L126A); assay: as above; conditions: α1^L98A
T6 sequence (P23415 29-457 L126A): T1 sequence (P23415 29-457) with L98A

[7] = direct activation without glycine
[8] = read-out: Zn^2+ Inhibition IC50, modulation of EC50 glycine currents
[9] = maximal Zn^2+ response as percentage of maximal glycine response in same cell
[10] = read-out: Zn^2+ Activation EC50, direct activation without glycine

Glycine Imax [1]: 6.8 ± 0.5 nA
Glycine nH ([1]; Hill slope): 2.7 ± 0.2
Activation by glycine ([2]; α1^F99A,E157A, up to 10 mM glycine): insensitive
Glycine Imax [3]: 6.1 ± 0.7 nA
Glycine nH ([3]; Hill slope): 2.7 ± 0.4
Glycine Imax [4]: 4.4 ± 0.7 nA
Glycine nH ([4]; Hill slope): 1.67 ± 0.1
Glycine Imax [5]: 3.9 ± 0.4 nA
Glycine nH ([5]; Hill slope): 2.3 ± 0.3
Glycine Imax [6]: 6.4 ± 0.5 nA
Glycine nH ([6]; Hill slope): 1.9 ± 0.3
SMILES: NCC(=O)O [Glycine, glycine]

Zn^2+ Activation EC50 [1, 7]: None
IC50 [1, 8]: 15 ± 2 µM
Decrease in sensitivity to Zn^2+ activation ([2]; E157A on α1^F99A background vs α1^F99A): 3 fold
Zn^2+ sensitivity compared with α1^F99A ([2]; α1^F99A,E157A, Zn^2+ activation): identical
Zn^2+ Activation nH ([3]; Hill slope): 1.2 ± 0.1
Zn^2+ Activation Relative efficacy (% Gly Imax) [3, 9]: 72 ± 5 % Gly Imax
EC50 [3, 10]: 140 ± 30 µM
IC50 [3, 8]: > 1000 µM
Zn^2+ Activation EC50 [4, 7]: None
IC50 [4, 8]: 13.3 ± 3.3 µM
EC50 [5, 10]: 0.13 ± 0.03 µM
IC50 [5, 8]: > 1000 µM
Zn^2+ Activation nH ([5]; Hill slope): 1.1 ± 0.1
Zn^2+ Activation Relative efficacy (% Gly Imax) [5, 9]: 86 ± 13 % Gly Imax
EC50 [6, 10]: 0.26 ± 0.08 µM
IC50 [6, 8]: > 1000 µM
Zn^2+ Activation nH ([6]; Hill slope): 1.1 ± 0.2
Zn^2+ Activation Relative efficacy (% Gly Imax) [6, 9]: 49 ± 5 % Gly Imax
SMILES: [Zn+2] [Zn^2+]

Source: paper PMC6685790 (Nature structural & molecular biology, 2008)
